These results are taken from PMC9607578, “Chemopreventive Effect on Human Colon Adenocarcinoma Cells of Styrylquinolines: Synthesis, Cytotoxicity, Proapoptotic Effect and Molecular Docking Analysis” (Molecules, 2022).

Assay in all cases: Cytotoxic activity, sulforhodamine B (SRB) staining
One test concerns SW480 cells. In kind it is cell-based, human. The settings on record: for IC50: Homo sapiens, read-out: SW480 IC50. The procedure:
(§1) For the biological assays, the human colon adenocarcinoma cell line SW480 and its metastatic derivative SW620 were used. Additionally, the nonmalignant cell line HaCaT was used to find the selectivity index of the compounds. All cell lines were obtained by the Colombian Plant Chemistry Group of the Faculty of Exact and Natural Sciences of the University of Antioquia (Medellín, Colombia) from the European Collection of Authenticated Cell Cultures (ECACC, Salisbury, UK). Cells were cultured in a DMEM medium with 4500 mg/L of glucose and L-glutamine (Sigma-Aldrich, Burlington, MA, USA), supplemented with 10% heat-inactivated (56 °C) horse serum (Gibco, Waltham, MA, USA), 1% penicillin/streptomycin (Sigma-Aldrich, Burlington, MA, USA), and 1% non-essential amino acids (Sigma-Aldrich, Burlington, MA, USA). For all experiments, horse serum was reduced to 3%, and the medium was supplemented with […] of transferrin, 5 ng/mL of selenium, and […] of insulin (ITS; Sigma-Aldrich, Burlington, MA, USA). All cell lines were incubated at 37 °C in a 5% CO2 atmosphere. Additionally, cell cultures were constantly monitored with PCR (Sigma-Aldrich, Burlington, MA, USA) for Mycoplasma spp. to control contamination with this agent.
(§2) To evaluate the effect of styrylquinolines on the viability of the SW480, SW620, and HaCaT cell lines, sulforhodamine B (SRB) staining was used. SRB is a colorimetric assay that indirectly estimates the number of living cells based on the ability of SRB to bind to protein components of adherent cells. Briefly, the malignant cell lines were seeded at a final density of 2.0 × 10^4 cells/well, and the nonmalignant cell line was seeded at a final density of 1.5 × 10^4 cells/well in 96-well tissue culture plates. All cell lines were incubated at 37 °C in a 5% CO2 atmosphere for 24 h to enable cell adherence, and they were then treated for 24 and 48 h with increasing concentrations (0.01–160 µM) of the styrylquinolines or their respective precursors (8-hydroxyquinoline and resveratrol), as well as 1% DMSO (negative control) and 5-FU (standard drug). After treatment, cells were fixed with trichloroacetic acid (50% v/v; PanReac AppliChem, Barcelona, Spain) for a period of one hour at 4 °C. After this, the cells were incubated for 30 min at room temperature with 0.4% (w/v) SRB (Sigma-Aldrich, Burlington, MA, USA). To remove unbound SRB, the cells were washed with 1% acetic acid, and the plates were allowed to dry at room temperature. Protein-bound SRB was solubilized with 10 mM Tris-base (Amresco, Cleveland, OH, USA) for 30 min at room temperature under constant agitation, and absorbance was measured at 490 nm in a microplate reader (Bio-Rad iMark^TM, Hercules, CA, USA). Finally, the concentration of the compound that inhibits 50% of cell growth (IC50) and the selectivity index (SI) were determined.

Another test deals with SW620 cells. In kind it is cell-based, human. Particulars: for IC50: Homo sapiens, read-out: SW620 IC50. Here is the method:
as §1, §2

In another test the test system is HaCaT cells. The format is cell-based. Particulars: Homo sapiens, read-out: HaCaT IC50. The procedure:
as §1, §2

Where [1] appears, read: SW480, 24 h treatment, mean ± SE.
Where [2] appears, read: SW480, 48 h treatment, mean ± SE.
The mark [3] stands for this setting: SW-620, 24 h treatment, mean ± SE.
[4] abbreviates: SW-620, 48 h treatment, mean ± SE.

Structures are written as SMILES. Read-outs that look alike come from different tables or passages of the source.

For orientation: IC50 means the concentration needed to halve the response being measured.

In the case of `Oc1ccc(/C=C/c2ccc3cccc(O)c3n2)c(O)c1` [Compound 3c], the “SI (IC50 HaCaT / IC50 SW480)” value in the test with SW480 cells (24 h treatment) was determined as 3.0; with SW480 cells (48 h treatment) it was 1.0. For the same compound, the IC50 in the test on SW480 cells (setting [1]) was 37.1 ± 3.8 µM; with SW480 cells (setting [2]), 38.4 ± 3.8 µM; with SW620 cells (setting [3]), 62 ± 4 µM; with SW620 cells (setting [4]), 20.7 ± 3.1 µM; in the test with HaCaT cells (24 h treatment, mean ± SE), 110 ± 12.7 µM; in the test with HaCaT cells (48 h treatment, mean ± SE), 38.4 ± 6.2 µM. Besides, the “SI (IC50 HaCaT / IC50 SW620)” value in the test on SW620 cells (24 h treatment) is 1.8; in the test on SW620 cells (48 h treatment) it was 1.9.

On to `Oc1cccc(/C=C/c2ccc3cccc(O)c3n2)c1O` [Compound 3b], for which the “SI (IC50 HaCaT / IC50 SW480)” value amounted to 0.8 with SW480 cells (24 h treatment) and 0.9 in the test with SW480 cells (48 h treatment). In addition, the IC50 in the test on SW480 cells (setting [1]) amounted to 72.6 ± 11 µM; in the test on SW480 cells (setting [2]), 39 ± 3.6 µM; with SW620 cells (setting [3]) it was 49.1 ± 4.6 µM; in the test on SW620 cells (setting [4]) it was 9.7 ± 2 µM; in the test with HaCaT cells (24 h treatment, mean ± SE), 57.2 ± 6.3 µM; in the test with HaCaT cells (48 h treatment, mean ± SE), 33.5 ± 4.9 µM. In addition, the “SI (IC50 HaCaT / IC50 SW620)” value in the test on SW620 cells (24 h treatment) was determined as 1.2; in the test on SW620 cells (48 h treatment), 3.4.

For the compound `Oc1ccc(CCc2ccc3cccc(O)c3n2)cc1` [Compound 4a, 2-(4-hydroxyphenethyl)quinolin-8-ol], the “SI (IC50 HaCaT / IC50 SW480)” value in the test on SW480 cells (24 h treatment) is given as 0.6; in the test with SW480 cells (48 h treatment), 1.1. In addition, the IC50 in the test with SW480 cells (setting [1]) was determined as 117 ± 5.3 µM; in the test on SW480 cells (setting [2]) it was 63.2 ± 7.1 µM; in the test with SW620 cells (setting [3]) it was 51 ± 5.6 µM; in the test with SW620 cells (setting [4]), 28.9 ± 1.2 µM; in the test with HaCaT cells (24 h treatment, mean ± SE), 65.1 ± 8.4 µM; in the test with HaCaT cells (48 h treatment, mean ± SE), 69.7 ± 3 µM. The results for the “SI (IC50 HaCaT / IC50 SW620)” value in the test on SW620 cells (24 h treatment) and in the test on SW620 cells (48 h treatment) were 1.3 and 2.4, respectively.

For the compound `Oc1cccc2cccnc12` [Compound 8-HQ, 8-hydroxyquinoline, reference compound], the “SI (IC50 HaCaT / IC50 SW480)” value in the test on SW480 cells (24 h treatment) turned out to be 1.0; in the test with SW480 cells (48 h treatment), 1.6. Besides, the IC50 stood at 89.6 ± 11.8 µM in the test with SW480 cells (SW480, 24 h); 38.8 ± 3.2 µM with SW480 cells (SW480, 48 h); 55.3 ± 3.6 µM in the test with SW620 cells (SW-620, 24 h); 36.3 ± 4.8 µM with SW620 cells (SW-620, 48 h); 87.1 ± 9.4 µM in the test with HaCaT cells (24 h); 61.6 ± 4.8 µM in the test on HaCaT cells (48 h). For the same compound, the “SI (IC50 HaCaT / IC50 SW620)” value is 1.6 in the test with SW620 cells (24 h treatment) and 1.7 in the test on SW620 cells (48 h treatment).

Take `O=c1[nH]cc(F)c(=O)[nH]1` [Compound 5-FU, 5-Fluorouracil, reference compound]: in the test with SW480 cells (24 h treatment), the “SI (IC50 HaCaT / IC50 SW480)” value was found to be 2.0. The IC50 in the test on SW480 cells (setting [1]) is more than 2000 µM; in the test on SW480 cells (setting [2]) it was 748 ± 158 µM; in the test with SW620 cells (setting [3]) it was more than 2000 µM; with SW620 cells (setting [4]), 296 ± 39.7 µM; in the test on HaCaT cells (24 h treatment, mean ± SE) it was more than 2000 µM; in the test with HaCaT cells (48 h treatment, mean ± SE), 38.8 ± 7.2 µM. Besides, the “SI (IC50 HaCaT / IC50 SW620)” value with SW620 cells (48 h treatment) came out at 0.1.

Turning to `Oc1ccc(/C=C/c2cc(O)cc(O)c2)cc1` [Resveratrol, resveratrol, reference compound], the entries for the “SI (IC50 HaCaT / IC50 SW480)” value in the test with SW480 cells (24 h treatment) and in the test on SW480 cells (48 h treatment) were 0.8 and 0.7, respectively. For the same compound, the IC50 with SW480 cells (setting [1]) is 217 ± 12.8 µM; in the test with SW480 cells (setting [2]) it was 136 ± 9.1 µM; in the test with SW620 cells (setting [3]) it was 169 ± 3.9 µM; in the test on SW620 cells (setting [4]) it was 125 ± 4.6 µM; with HaCaT cells (24 h treatment, mean ± SE) it was 180 ± 7.2 µM; in the test on HaCaT cells (48 h treatment, mean ± SE), 98.2 ± 7 µM. The figures for the “SI (IC50 HaCaT / IC50 SW620)” value with SW620 cells (24 h treatment) and with SW620 cells (48 h treatment) were 1.1 and 0.8, respectively.

With `COc1cc(CCc2ccc3cccc(O)c3n2)ccc1O` [Compound 4b, 2-(4-hydroxy-3-methoxyphenethyl)quinolin-8-ol], the “SI (IC50 HaCaT / IC50 SW480)” value in the test on SW480 cells (24 h treatment) and in the test on SW480 cells (48 h treatment) was 1.2 throughout. Also, the IC50 in the test with SW480 cells (setting [1]) was found to be 93.4 ± 16.6 µM; in the test on SW480 cells (setting [2]), 43.2 ± 2 µM; with SW620 cells (setting [3]) it was 58.8 ± 5.5 µM; in the test with SW620 cells (setting [4]), 18.6 ± 2 µM; in the test with HaCaT cells (24 h treatment, mean ± SE) it was 109 ± 8.1 µM; with HaCaT cells (48 h treatment, mean ± SE) it was 53.6 ± 2.2 µM. Further, the entries for the “SI (IC50 HaCaT / IC50 SW620)” value in the test on SW620 cells (24 h treatment) and in the test on SW620 cells (48 h treatment) were 1.9 and 2.9, respectively.
